Measured values reported in patent US10138247B2, “7-(morpholin-4-yl)pyrazole[1,5-A]pyrimidine derivatives as PI3 kinase inhibitors” (priority 2015, dated 2018).
Like-named read-outs stand apart in the source and are kept apart here.

Experiments:
[1] = biological target: T1, PI3Kδ (Homo sapiens, UniProt O00329); assay: PI3K kinases inhibition in vitro (ADP-Glo), PI3Kδ; assay type: biochemical
T1 construct: purchased Merck Millipore
Method: (§1) Tested compounds were dissolved in 100% DMSO, and thus obtained solutions were serially diluted in 1× reaction buffer. Recombinant kinase was diluted in a reaction mixture comprising 5× reaction buffer, substrate (1 mM sodium diacetate 4,5-bisphosphate phosphatydylinositol (PIP2) solution in 40 mM Tris buffer), and water. To the wells in a 96-wells plate, 5 μl of compounds solutions and 15 μl of the kinase solution in the reaction mixture were added. To initiate interaction of tested chemical compounds with the enzyme, the plate was incubated for 10 minutes at suitable temperature in a plate thermostat with orbital shaking at 600 rpm. Negative control wells contained all above reagents except tested compound and kinase, and positive control wells contained all above reagents except tested compounds. Enzymatic reaction was initiated by adding 5 μl of 150 μM ATP solution, subsequently the plate was incubated for 1 hour at 25° C. or 30° C. (depending on PI3K isoform tested) in plate thermostat with orbital shaking of the plate contents at 600 rpm. Reaction conditions are presented below in Table 12.
(§2) Detection of ADP formed in the enzymatic reaction was then performed using ADP-Glo Kinase Assay (Promega). To the wells of a 96-well plate 25 μl of ADP-Glo Reagent were added, and the plate was incubated for 40 minutes at 25° C. in a plate thermostat with orbital shaking at 600 rpm. Then to the wells of 96-well plate 50 μl of Kinase Detection Reagent were added and the plate was incubated for 40 minutes at 25° C. in a plate thermostat with orbital shaking at 600 rpm. After incubation time, luminescence intensity in a well was measured by Victor Light luminometer (Perkin Elmer, Inc.).
(§3) IC50 values were determined on the basis of luminescence intensity measurements in wells containing tested compounds at different concentrations and in control wells. These values were calculated with Graph Pad 5.03 software by fitting the curve using non-linear regression. Each compound was tested at least in quadruplicates (4 wells) on two 96-well plates using at least 4 wells of each of the controls.

[2] = biological target: T2, PI3Kγ (Homo sapiens, UniProt P48736); assay: PI3K kinases inhibition in vitro (ADP-Glo), PI3Kγ; assay type: biochemical
T2 construct: purchased Merck Millipore
T2 sequence (P48736 whole entry): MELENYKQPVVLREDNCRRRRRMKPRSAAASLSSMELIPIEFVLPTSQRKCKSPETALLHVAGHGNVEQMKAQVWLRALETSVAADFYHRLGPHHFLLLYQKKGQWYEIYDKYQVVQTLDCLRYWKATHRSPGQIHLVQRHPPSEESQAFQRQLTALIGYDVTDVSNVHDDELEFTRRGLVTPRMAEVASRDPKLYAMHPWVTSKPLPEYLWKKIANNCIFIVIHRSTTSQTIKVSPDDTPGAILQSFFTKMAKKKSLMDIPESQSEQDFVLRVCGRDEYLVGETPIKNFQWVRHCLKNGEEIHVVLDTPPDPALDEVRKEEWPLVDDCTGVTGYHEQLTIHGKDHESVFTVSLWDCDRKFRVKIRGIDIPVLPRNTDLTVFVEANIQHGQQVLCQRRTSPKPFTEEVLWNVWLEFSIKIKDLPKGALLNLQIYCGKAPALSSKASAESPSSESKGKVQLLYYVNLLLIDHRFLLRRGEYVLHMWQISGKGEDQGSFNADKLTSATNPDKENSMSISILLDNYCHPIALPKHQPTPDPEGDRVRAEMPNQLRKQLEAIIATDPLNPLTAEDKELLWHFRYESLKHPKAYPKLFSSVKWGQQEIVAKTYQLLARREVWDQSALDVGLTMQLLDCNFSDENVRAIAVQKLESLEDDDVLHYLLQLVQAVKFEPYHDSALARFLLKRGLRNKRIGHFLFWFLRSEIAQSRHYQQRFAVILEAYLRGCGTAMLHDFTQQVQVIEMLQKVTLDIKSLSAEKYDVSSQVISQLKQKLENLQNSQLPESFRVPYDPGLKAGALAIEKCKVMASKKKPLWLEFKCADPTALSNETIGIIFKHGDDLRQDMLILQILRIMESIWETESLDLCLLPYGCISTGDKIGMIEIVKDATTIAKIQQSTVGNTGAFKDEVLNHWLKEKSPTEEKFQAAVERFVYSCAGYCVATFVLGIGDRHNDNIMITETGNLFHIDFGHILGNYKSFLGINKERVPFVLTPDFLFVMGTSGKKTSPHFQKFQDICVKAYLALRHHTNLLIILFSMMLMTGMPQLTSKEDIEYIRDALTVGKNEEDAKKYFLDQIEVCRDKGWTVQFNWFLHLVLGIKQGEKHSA
Method: as §1, §2, §3

[3] = biological target: T3, PI3Kα (Homo sapiens, UniProt P42336); assay: PI3K kinases inhibition in vitro (ADP-Glo), PI3Kα; assay type: biochemical
T3 construct: purchased Carna Biosciences
T3 sequence (P42336 whole entry): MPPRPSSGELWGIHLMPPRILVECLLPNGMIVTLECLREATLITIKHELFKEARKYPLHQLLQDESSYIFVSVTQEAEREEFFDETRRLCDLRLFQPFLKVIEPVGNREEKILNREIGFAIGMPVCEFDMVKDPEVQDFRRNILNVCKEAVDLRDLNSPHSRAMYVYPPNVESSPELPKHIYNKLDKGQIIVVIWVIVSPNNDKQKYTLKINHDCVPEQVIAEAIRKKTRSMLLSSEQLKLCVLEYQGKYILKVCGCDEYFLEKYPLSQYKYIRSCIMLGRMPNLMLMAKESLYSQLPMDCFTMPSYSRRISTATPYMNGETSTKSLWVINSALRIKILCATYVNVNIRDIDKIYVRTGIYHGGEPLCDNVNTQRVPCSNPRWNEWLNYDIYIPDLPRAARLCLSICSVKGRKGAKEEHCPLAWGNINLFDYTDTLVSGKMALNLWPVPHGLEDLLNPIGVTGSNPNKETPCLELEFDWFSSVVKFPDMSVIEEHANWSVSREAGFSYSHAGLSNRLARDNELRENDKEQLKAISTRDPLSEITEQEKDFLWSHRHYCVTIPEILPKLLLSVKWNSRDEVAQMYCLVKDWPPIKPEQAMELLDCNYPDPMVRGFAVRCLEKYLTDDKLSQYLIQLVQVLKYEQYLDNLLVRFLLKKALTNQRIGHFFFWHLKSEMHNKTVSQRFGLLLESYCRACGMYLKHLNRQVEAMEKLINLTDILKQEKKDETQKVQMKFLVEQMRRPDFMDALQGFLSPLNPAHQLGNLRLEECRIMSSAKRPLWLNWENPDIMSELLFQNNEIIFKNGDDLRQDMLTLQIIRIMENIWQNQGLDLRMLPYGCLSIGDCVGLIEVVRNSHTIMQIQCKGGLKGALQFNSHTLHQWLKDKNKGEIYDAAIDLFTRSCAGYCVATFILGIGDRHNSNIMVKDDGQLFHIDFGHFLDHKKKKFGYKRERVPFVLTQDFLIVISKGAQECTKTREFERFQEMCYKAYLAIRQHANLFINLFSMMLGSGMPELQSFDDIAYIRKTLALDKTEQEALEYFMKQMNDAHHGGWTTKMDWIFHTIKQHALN
T3 sequence (P27986 whole entry partner): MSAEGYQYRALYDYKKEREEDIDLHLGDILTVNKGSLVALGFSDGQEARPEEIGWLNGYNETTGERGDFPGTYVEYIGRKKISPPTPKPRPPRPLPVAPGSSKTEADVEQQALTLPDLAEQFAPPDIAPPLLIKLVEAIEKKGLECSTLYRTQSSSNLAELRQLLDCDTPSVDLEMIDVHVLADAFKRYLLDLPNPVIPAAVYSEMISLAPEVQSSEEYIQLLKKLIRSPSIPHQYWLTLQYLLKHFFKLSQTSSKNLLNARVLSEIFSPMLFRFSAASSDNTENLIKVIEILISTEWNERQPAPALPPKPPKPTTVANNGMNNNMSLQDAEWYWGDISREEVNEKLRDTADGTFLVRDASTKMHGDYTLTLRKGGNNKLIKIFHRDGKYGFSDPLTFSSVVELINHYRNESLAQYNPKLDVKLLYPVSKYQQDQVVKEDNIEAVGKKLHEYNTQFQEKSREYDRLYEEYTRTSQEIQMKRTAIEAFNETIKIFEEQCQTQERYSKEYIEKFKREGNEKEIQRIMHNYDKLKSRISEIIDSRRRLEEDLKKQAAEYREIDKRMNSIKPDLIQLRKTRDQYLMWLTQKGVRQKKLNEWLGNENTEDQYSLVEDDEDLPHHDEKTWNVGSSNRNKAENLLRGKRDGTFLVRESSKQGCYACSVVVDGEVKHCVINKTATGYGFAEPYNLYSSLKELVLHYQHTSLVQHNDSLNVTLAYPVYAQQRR
Method: as §1, §2, §3

[4] = Pharmacokinetics testing in vivo, oral, rats; conditions: rat, Wistar rats, oral 30 mg/kg, serum
Method: Tests were performed on about 12 weeks old Wistar rats, weight 250-300 g. Rats were given orally tested compounds at 30 mg/kg m.c. Blood samples were collected from animals for analysis in 6 time points—30 min, 1 h, 2 h, 4 h, 7 h, and 12 h from administration of the compound. Blood was collected to tubes with K2EDTA and centrifuged for 15 min, 2000×g, at room temperature to separate serum. Collected serum samples were maintained at −20° C. before analysis. Each of the compounds was tested on a group of 5 animals.
Serum concentrations of tested compounds were determined by spectrophotometry. For each of tested compounds, time to reach maximum serum concentration (Tmax), maximum concentration (Cmax), and area under the curve (AUC) were determined.

[5] = biological target: T4, PI3Kβ (Homo sapiens, UniProt P42338); assay: PI3K kinases inhibition in vitro (ADP-Glo), PI3Kβ; assay type: biochemical
T4 construct: purchased Merck Millipore
T4 sequence (P42338 whole entry): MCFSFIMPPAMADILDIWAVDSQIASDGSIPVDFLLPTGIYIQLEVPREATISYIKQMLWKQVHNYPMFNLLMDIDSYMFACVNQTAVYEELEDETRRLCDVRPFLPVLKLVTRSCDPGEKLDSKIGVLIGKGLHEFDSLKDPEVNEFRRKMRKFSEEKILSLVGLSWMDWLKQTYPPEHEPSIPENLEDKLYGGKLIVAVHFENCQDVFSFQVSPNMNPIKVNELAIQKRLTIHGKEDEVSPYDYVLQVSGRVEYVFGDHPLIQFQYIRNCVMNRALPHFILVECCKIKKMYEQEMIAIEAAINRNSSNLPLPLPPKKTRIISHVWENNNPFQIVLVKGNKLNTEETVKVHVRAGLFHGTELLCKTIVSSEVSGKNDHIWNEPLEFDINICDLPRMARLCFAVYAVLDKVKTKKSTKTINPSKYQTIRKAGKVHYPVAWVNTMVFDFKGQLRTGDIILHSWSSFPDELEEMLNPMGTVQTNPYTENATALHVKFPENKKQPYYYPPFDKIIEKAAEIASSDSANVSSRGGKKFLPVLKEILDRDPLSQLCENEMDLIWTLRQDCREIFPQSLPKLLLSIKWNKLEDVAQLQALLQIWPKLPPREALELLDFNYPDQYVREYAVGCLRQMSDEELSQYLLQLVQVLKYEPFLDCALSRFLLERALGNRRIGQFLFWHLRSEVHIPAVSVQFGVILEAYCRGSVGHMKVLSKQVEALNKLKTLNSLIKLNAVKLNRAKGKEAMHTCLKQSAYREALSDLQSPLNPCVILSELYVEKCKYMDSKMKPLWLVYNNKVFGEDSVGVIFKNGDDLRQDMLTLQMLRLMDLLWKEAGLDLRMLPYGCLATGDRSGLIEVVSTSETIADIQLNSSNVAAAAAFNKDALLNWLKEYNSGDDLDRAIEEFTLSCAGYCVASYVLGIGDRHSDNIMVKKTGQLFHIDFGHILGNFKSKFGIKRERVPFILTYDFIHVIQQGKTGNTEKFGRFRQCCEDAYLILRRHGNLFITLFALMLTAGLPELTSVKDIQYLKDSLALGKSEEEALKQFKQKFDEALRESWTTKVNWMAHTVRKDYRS
T4 sequence (P27986 whole entry, further chain): as the sequence (P27986 whole entry partner) above
Method: as §1, §2, §3

[6] = averaged, recombinant kinase, 25° C., 1 h, PIP2 30 μM, read-out: PI3Kδ IC50
[7] = averaged, recombinant kinase, 30° C., 1 h, PIP2 50 μM, read-out: PI3Kγ IC50
[8] = averaged, recombinant kinase, 30° C., 1 h, PIP2 50 μM, read-out: PI3Kβ IC50

T1 sequence (O00329 whole entry): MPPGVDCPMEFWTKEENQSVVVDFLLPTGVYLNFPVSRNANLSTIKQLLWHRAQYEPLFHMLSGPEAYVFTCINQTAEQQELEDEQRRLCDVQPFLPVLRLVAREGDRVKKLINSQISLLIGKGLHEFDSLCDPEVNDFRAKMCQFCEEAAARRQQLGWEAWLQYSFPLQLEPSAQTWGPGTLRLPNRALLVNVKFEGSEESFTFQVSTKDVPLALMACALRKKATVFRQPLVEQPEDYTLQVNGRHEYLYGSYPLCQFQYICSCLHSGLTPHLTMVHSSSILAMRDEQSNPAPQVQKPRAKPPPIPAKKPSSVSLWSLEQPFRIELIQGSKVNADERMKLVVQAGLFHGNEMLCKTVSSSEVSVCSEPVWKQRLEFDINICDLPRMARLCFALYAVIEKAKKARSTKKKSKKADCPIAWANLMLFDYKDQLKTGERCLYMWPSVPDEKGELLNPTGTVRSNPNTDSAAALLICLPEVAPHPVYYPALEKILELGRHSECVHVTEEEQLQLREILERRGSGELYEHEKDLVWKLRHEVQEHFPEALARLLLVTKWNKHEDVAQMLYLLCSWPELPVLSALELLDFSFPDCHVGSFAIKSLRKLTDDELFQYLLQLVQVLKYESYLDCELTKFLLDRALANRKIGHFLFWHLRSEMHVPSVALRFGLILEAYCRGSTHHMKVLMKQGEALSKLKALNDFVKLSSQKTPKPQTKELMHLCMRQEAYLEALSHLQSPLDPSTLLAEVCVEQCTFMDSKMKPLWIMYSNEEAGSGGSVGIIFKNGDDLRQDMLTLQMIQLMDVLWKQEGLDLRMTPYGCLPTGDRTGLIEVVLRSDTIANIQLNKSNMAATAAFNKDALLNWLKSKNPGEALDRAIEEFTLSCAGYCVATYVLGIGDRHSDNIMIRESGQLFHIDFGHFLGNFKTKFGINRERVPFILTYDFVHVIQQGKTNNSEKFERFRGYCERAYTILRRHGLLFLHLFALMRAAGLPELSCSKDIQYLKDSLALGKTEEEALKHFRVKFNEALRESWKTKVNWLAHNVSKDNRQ
T1 sequence (P27986 whole entry, further chain): as the sequence (P27986 whole entry partner) above

SMILES: CC(C)(O)C1CCN(Cc2cc3nc(-c4cccc5[nH]ccc45)cc(N4CCOCC4)n3n2)CC1 [Example 4, 2-((4-(2-hydroxypropan-2-yl)-piperidin-1-yl)methyl)-5-(1H-indol-4-yl)-7-(morpholin-4-yl)pyrazolo [1,5-a]pyrimidine]
- IC50 [1]: < 100 nM
- IC50 [2]: > 1000 nM
- IC50 [3]: > 1000 nM
- AUC [4]: 3580 ng·h/mL
- Cmax [4]: 600 ng/mL
- Tmax [4]: 2 h
- IC50 [5]: > 1000 nM

SMILES: CC(C)(C)N1CCN(Cc2cc3nc(-c4cccc5[nH]ccc45)cc(N4CCOCC4)n3n2)CC1 [Example 8, 2-((4-tert-butylpiperazin-1-yl)-methyl)-5-(1H-indol-4-yl)-7-(morpholin-4-yl)pyrazolo[1,5-a]-pyrimidine]
- IC50 [1]: < 100 nM
- IC50 [2]: > 1000 nM
- IC50 [3]: > 1000 nM
- AUC [4]: 1290 ng·h/mL
- Cmax [4]: 200 ng/mL
- Tmax [4]: 2 h
- IC50 [5]: > 1000 nM

SMILES: CC(C)(C)N1CCN(Cc2cc3nc(-c4c(F)ccc5[nH]ccc45)cc(N4CCOCC4)n3n2)CC1 [Example 11, 2-((4-tert-butylpiperazin-1-yl)-methyl)-5-(5-fluoro-1H-indol-4-yl)-7-(morpholin-4-yl)pyrazolo[1,5-a]-pyrimidine]
- IC50 [1, 6]: < 100 nM
- IC50 [2, 7]: > 1000 nM
- IC50 [3]: > 1000 nM
- AUC [4]: 1250 ng·h/mL
- Cmax [4]: 300 ng/mL
- Tmax [4]: 2 h
- IC50 [5]: > 1000 nM

SMILES: CC(C)(C)N1CCN(Cc2cc3nc(-n4c(C(F)F)nc5ccccc54)cc(N4CCOCC4)n3n2)CC1 [Example 50, 5-(2-(difluoromethyl)benzimidazol-1-yl)-2-((4-tert-butylpiperazin-1-yl)methyl)-7-(morpholin-4-yl)-pyrazolo[1,5-a]pyrimidine]
- IC50 [1, 6]: < 100 nM
- IC50 [2, 7]: > 1000 nM
- IC50 [3]: 100 to 1000 nM
- AUC [4]: 5030 ng·h/mL
- Cmax [4]: 900 ng/mL
- Tmax [4]: 2 h
- IC50 [5, 8]: > 1000 nM

SMILES: FC(F)c1nc2ccccc2n1-c1cc(N2CCOCC2)n2nc(CN3CC(N4CCC(F)(F)CC4)C3)cc2n1 [Example 66, 5-(2-(difluoromethyl)benzimidazol-1-yl)-2-((3-(4,4-difluoropiperidin-1-yl)azetidin-1-yl)methyl)-7-(morpholin-4-yl)pyrazolo[1,5-a]-pyrimidine]
- IC50 [1, 6]: < 100 nM
- IC50 [2, 7]: > 1000 nM
- IC50 [3]: 100 to 1000 nM
- IC50 [5, 8]: > 1000 nM

SMILES: Cc1c(CN2CCN(C(C)(C)C)CC2)nn2c(N3CCOCC3)cc(-n3c(C(F)F)nc4ccccc43)nc12 [Example 68, 5-(2-(difluoromethyl)benzimidazol-1-yl)-3-methyl-2-((4-tert-butylpiperazin-1-yl)methyl)-7-(morpholin-4-yl)pyrazolo[1,5-a]-pyrimidine]
- IC50 [1, 6]: < 100 nM
- IC50 [2, 7]: > 1000 nM
- IC50 [3]: 100 to 1000 nM
- IC50 [5, 8]: > 1000 nM

SMILES: Cc1c(CN2CCC(C(C)(C)O)CC2)nn2c(N3CCOCC3)cc(-n3c(C(F)F)nc4ccccc43)nc12 [Example 69, 5-(2-(difluoromethyl)benzimidazol-1-yl)-3-methyl-2-((4-(2-hydroxy-propan-2-yl)piperidin-1-yl)methyl)-7-(morpholin-4-yl)pyrazolo[1,5-a]-pyrimidine]
- IC50 [1, 6]: < 100 nM
- IC50 [2, 7]: > 1000 nM
- IC50 [3]: 100 to 1000 nM
- IC50 [5, 8]: > 1000 nM

SMILES: CC(C)(C)N1CCN(C(=O)c2cc3nc(-c4cccc5[nH]ccc45)cc(N4CCOCC4)n3n2)CC1 [Example 70, 2-(4-tert-butylpiperazin-1-ylcarbonyl)-5-(1H-indol-4-yl)-7-(morpholin-4-yl)pyrazolo[1,5-a]pyrimidine]
- IC50 [1, 6]: < 100 nM
- IC50 [2, 7]: > 1000 nM
- IC50 [3]: > 1000 nM
- IC50 [5, 8]: > 1000 nM

SMILES: CC(C)(C)N1CCN(Cc2nn3c(N4CCOCC4)cc(-n4c(C(F)F)nc5ccccc54)nc3c2Cl)CC1 [Example 71, 5-(2-(difluoromethyl)benzimidazol-1-yl)-3-chloro-2-((4-tert-butylpiperazin-1-yl)methyl)-7-(morpholin-4-yl)pyrazolo[1,5-a]pyrimidine]
- IC50 [1, 6]: < 100 nM
- IC50 [2, 7]: > 1000 nM
- IC50 [3]: 100 to 1000 nM
- IC50 [5, 8]: > 1000 nM
